# Reference: US8658672B2, “HIF-1α activating agent” (University of Seoul Foundation of Industrial and Academic …, priority 2006, dated 2014)
# Key:
# VEGF = test: Effects of CQ and TPEN on the expression of VEGF, a HIF-1α target gene (RT-PCR); assay type: cell-based, human; settings: TPEN 5 μM
# From the text: ID. […] ID. NO: 2 (5′-[…]-3′). […] ID. […] ID. NO: 4 (5′-[…]-3′).
# [1] = test system: HRE (hypoxia-response element); test: HRE dependent gene expression in HepG2 hepatoma cells (luciferase reporter gene assay); assay type: cell-based, human; settings: p(HRE)4-luc, TPEN 5, 10 μM, CQ 10, 50 μM, 16 hours
# Method: Human HepG2 hepatoma cells were grown to the density of 5×10^4 and then transfected with 100 ng of HRE-driven reporter plasmid, p(HRE)4-luc together with plasmid pCHO110 which encodes β-galactosidase. The transfected human HepG2 hepatoma cells were cultured under normoxic condition and hypoxic condition and then treated with TPEN (5, 10 μM) and CQ (10, 50 μM) for 16 hours each. 48 hours after the transfection, luciferase activities were analyzed using the reporter gene assay system (Promega, USA) and normalized by β-galactosidase activities.
# HIF-1α and CBP = test: Co-immunoprecipitation of HIF-1α with CBP in HepG2 cells; assay type: cell-based, human; settings: normoxic, CQ 100 μM, MG132 5 μM 6 hours
# Method: Total cell extract was prepared by the method of Jaakkola, et al (Jaakkola et al., Science 292:468-472, 2001). For immunoprecipitation, 200 μg of samples of whole cell lysates were reacted with 1 μg of anti-mouse IgG (Santa Cruz Biotechnology, USA) and 10 μl of 0.5% ImmunoPure immobilized protein A/G gel (Pierce, USA) for 30 minutes at 4° C. After removing protein A/G gel, the cleared extracts were mixed with 1 μg of anti-CBP antibody (Santa Cruz Biotechnology, USA). After addition of 15 μl of 0.5% ImmunoPure immobilized protein A/G gel, they were left at 4° C. for 16 hours. The immunoprecipitates were pelleted, washed four times with PBS and resuspended in SDS sample buffer. Samples were then boiled for 5 minutes and run on 8% SDS-polyacrylamide gels, and the proteins were transferred to nitrocellulose membranes by semi-dry transfer (Trans-Blot SD, Bio-Red, Hercules, USA). Co-immunoprecipitated proteins were reacted with anti-human HIF-1α antibody (BD, Pharmingen, USA) and/or anti-CBP antibody and visualized by enhanced chemiluminescence, according to the manufacturer's instruction (Amersham, USA), with anti-mouse or anti-rabbit Ig conjugated with horseradish peroxidase (HRP) as a secondary antibody.
# [2] = cited from earlier work
structure (smiles),measurement,setting,value
"c1ccc(CN(CCN(Cc2ccccn2)Cc2ccccn2)Cc2ccccn2)nc1 [TPEN, tetrakis-(2-pyridylmethyl)ethanediamine]",VEGF expression,"VEGF; HepG2 cells, normoxic, CQ 10, 100 μM",differed in their effects on VEGF expression
same,VEGF expression,"VEGF; SH-SY5Y cells, normoxic condition, CQ 10, 100 μM",reduced VEGF expression
same,VEGF expression,"VEGF; hypoxic condition, 16 hours, CQ 100 μM, SH-SY5Y and HepG2 cells","none of the control, TPEN and CQ increased VEGF expression"
same,HIF-1α dependent hypoxia-response element (HRE) activity,[1],but not TPEN induced HIF-1α dependent hypoxia-response element (HRE) activity
same,interaction of HIF-1α with CBP in cells,HIF-1α and CBP,inhibited the interaction between HIF-1α and CBP
same,"pKa value, Ca2+",[2]; Ca^2+,3
same,"pKa value, Fe3+",[2]; Fe^3+,14.4
same,"pKa value, Zn2+",[2]; Zn^2+,15.4
